Measured values published in PubChem BioAssay (NCI).
Values joined by “and” are separate entries in the source; they are usually repeats but may differ in a detail not shown here. Equal values may be shown once.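 Tested at 5 concentrations; 48 h exposure; 96-well plates; endpoints linearly interpolated, else capped at highest concentration. At the GI50, growth is halved. TGI marks complete inhibition of growth.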

How the values were obtained:
Assay in all cases: NCI tumour cell line growth inhibition, 48 h
XF 498 CNS = test system: XF 498 CNS
SNB-78 CNS = test system: SNB-78 CNS
LXFL 529 NSCLC = test system: LXFL 529 NSCLC
DMS 114 small cell lung = test system: DMS 114 small cell lung
MDA-N = test system: MDA-N
BT-549 breast = test system: BT-549 breast
DLD-1 colon = test system: DLD-1 colon
HOP-18 NSCLC = test system: HOP-18 NSCLC
RXF-631 renal = test system: RXF-631 renal
P388/ADR leukemia = test system: P388/ADR leukemia
SN12K1 renal = test system: SN12K1 renal
P388 leukemia = test system: P388 leukemia

SMILES	TGI (XF 498 CNS) [µM]	TGI (SNB-78 CNS)	TGI (LXFL 529 NSCLC) [µM]	TGI (DMS 114 small cell lung) [µM]	TGI (DLD-1 colon) [µM]	TGI (HOP-18 NSCLC) [µM]	also measured
C#CCC[C@@H]1O[C@@]1(C)CC/C=C(\C)CC/C=C/C=O	58.2	77.3 µM	51.1	35.1	–	–	–
O=C(O)CSCc1cccc2ccccc12	–	–	–	–	–	–	TGI (MDA-N): > 100 µM; TGI (BT-549 breast): > 100 µM
O=[As](O)(O)c1ccc(NCc2ccccc2)cc1	–	–	–	–	–	–	TGI (MDA-N): > 100 µM; TGI (BT-549 breast): > 100 µM
O=C1c2ccccc2C2(O)Nc3cc(O)ccc3C12O (configuration not stated)	–	> 100 µM	> 100	> 100	> 100	> 100	TGI (RXF-631 renal): > 100 µM
O=C(NCCCCCCCCNC(=O)c1cnc2ccccc2n1)c1cnc2ccccc2n1	> 100	> 100 µM	> 100	> 100	> 100	> 100	–
CC1=CC2CC(C)=C(CC[C@]3(C)CC[C@H]([C@@H](C)C(=O)O)OO3)C(C)(C)C2CC1 (some centres not stated)	0.768	4.09 µM	0.414	0.973	0.426	1.45	TGI (RXF-631 renal): 2.95 µM
CN(C)c1ccc2c(c1)C(=O)N(OS(=O)(=O)c1ccc([N+](=O)[O-])cc1)C2=O	35.1	73.8 µM	37	> 10	86.8	> 100	TGI (RXF-631 renal): 47.1 µM
COc1cc(CCc2cccnc2)cc(OC)c1OC	–	> 100 µM	> 100	> 100	> 100	> 100	–
CCC[CH2][Sn]([CH2]CCC)([O]C(=O)c1c(F)cccc1F)[O]C(=O)c1c(F)cccc1F	2.59	1.47 µM	0.318	0.602	1.91	3.3	GI50 (DLD-1 colon): 0.624 µM; GI50 (HOP-18 NSCLC): 1.89 µM; GI50 (XF 498 CNS): 1.31 µM; GI50 (SNB-78 CNS): 0.333 µM; GI50 (LXFL 529 NSCLC): 0.139 µM; GI50 (DMS 114 small cell lung): 0.214 µM
N#Cc1cccc(N2C(=O)c3c(c(-c4ccccc4)c(-c4ccc(Sc5ccc(-c6c(-c7ccccc7)c7c(c(-c8ccccc8)c6-c6ccccc6)C(=O)N(c6cccc(C#N)c6)C7=O)cc5)cc4)c(-c4ccccc4)c3-c3ccccc3)C2=O)c1	85	> 100 µM	> 100	> 100	> 100	–	TGI (RXF-631 renal): > 100 µM
FC(F)(F)C1(Cl)C(c2ccccc2)=C1c1ccccc1	26.5	33.1 µM	26.3	25.6	28.3	35.6	TGI (RXF-631 renal): 29.2 µM
COc1cccc([C@H]2CC(=O)c3cc4c(cc3N2)OCO4)c1	–	–	–	–	–	–	GI50 (MDA-N): 0.0287 µM
CC1[C@@H]2[C@@H](C=C3C4CCC5Cc6nc7c(nc6C[C@@]5(C)C4C[C@H](O)[C@]32CO)CC2CCC3C4=C[C@H]5O[C@@]6(O[C@@](C)(CO)C[C@@H]6O)C(C)[C@@]5(O)[C@]4(C)[C@@H](O)CC3[C@]2(C)C7)O[C@]12CCC(C)(C)O2 (some centres not stated)	–	0.34 µM and 0.642 µM	0.0713	> 3.65	> 3.65	> 3.65	TGI (P388/ADR leukemia): > 3.65 µM; GI50 (DLD-1 colon): 0.583 µM; GI50 (HOP-18 NSCLC): 2.08 µM; GI50 (XF 498 CNS): < 0.000365 µM; GI50 (SNB-78 CNS): < 0.000365 µM; TGI (SN12K1 renal): > 3.65 µM; TGI (P388 leukemia): > 3.65 µM
CC1=CCC[C@@]2(C)C(CC[C@@H]2C(C)/C=C/C(C)C)c2ccc(cc2C(=O)O)C[C@@H](O)CC1 (some centres not stated)	–	34.5 µM	23.9	40.3	14	–	–
CC(C)=CCN=C(N)N	–	–	–	–	–	–	TGI (MDA-N): > 100 µM; TGI (BT-549 breast): > 100 µM
COC(=O)Cc1cc(OC)c(OC)cc1Br	–	> 100 µM	> 100	> 100	> 100	–	–
CCOc1ccc2nc(NC(=O)C(=O)C(C(=O)c3ccccc3-c3ccccc3)C3OC(=O)c4ccccc43)sc2c1 (configuration not stated)	49.1	> 100 µM	41.1	35	> 100	–	TGI (MDA-N): 70.9 µM; TGI (BT-549 breast): 81.7 µM
OCCOc1ccc(-c2cc(-c3ccccn3)nc(-c3ccccn3)c2)cc1	–	> 100 µM	> 100	1.93	> 100	5.59	TGI (MDA-N): > 100 µM; TGI (RXF-631 renal): > 100 µM; TGI (BT-549 breast): > 100 µM
O=C(O)CN(c1ccccc1)S(=O)(=O)c1ccc(NC(=O)c2ccccc2)cc1	> 100	–	> 100	–	> 100	> 100	–
CCCCCCCCCCCOC(=S)NC(C)C	30.9	78.5 µM	85.4	36.1	49	88.5	–
Nc1ncnc2c1ncn2C1OC(COP(=O)(O)CP(=O)(O)O)C(O)C1O (configuration not stated)	–	–	–	–	–	–	TGI (MDA-N): > 100 µM; TGI (BT-549 breast): > 100 µM
CC1=NN(C(=O)c2ccccc2O)C(=O)/C1=C/c1ccc([N+](=O)[O-])cc1	> 100	> 100 µM	> 100	7.81	> 100	–	GI50 (MDA-N): 0.0903 µM; TGI (MDA-N): > 100 µM; GI50 (BT-549 breast): 0.127 µM; TGI (BT-549 breast): > 100 µM

SMILES	TGI (XF 498 CNS) [µM]	TGI (SNB-78 CNS)	TGI (LXFL 529 NSCLC) [µM]	TGI (DMS 114 small cell lung) [µM]	TGI (DLD-1 colon) [µM]	TGI (HOP-18 NSCLC) [µM]	also measured
N=C(c1ccccc1)N(c1ccccc1)c1ccccc1	–	> 100 µM	> 100	–	> 100	13.1	–
Cc1ccc(C(=O)O/N=C2/CCCC/C2=C\c2ccccc2)cc1	> 100	53.4 µM	30.9	–	> 100	> 100	–
O=C(CC1=Nc2nnc(-c3nnc4n3C(=O)C(CC(=O)c3cccnc3)=N4)n2C1=O)c1cccnc1	–	> 100 µM	> 100	> 100	> 100	–	TGI (RXF-631 renal): > 100 µM
CCC1(C)NN=c2s/c(=C/c3ccc(OC)cc3)c(=O)n2N1 (configuration not stated)	> 100	> 100 µM	> 100	–	> 100	–	–
CCOc1ccccc1NC(=O)CCC(=O)OC	> 100	> 100 µM	> 100	> 100	> 100	> 100	–
CCSc1nnc2c(-c3ccccc3)n[nH]c2n1	–	–	–	–	–	–	TGI (MDA-N): > 100 µM; TGI (BT-549 breast): > 100 µM
CN1C(=O)c2c(ccc3c2OCO3)C2C(O)Cc3cc4c(cc3C21)OCO4 (configuration not stated)	–	–	–	–	–	–	TGI (MDA-N): 5.56 µM; TGI (BT-549 breast): > 100 µM
N#Cc1cc(C#N)c(Cl)nc1N	–	–	–	–	–	–	TGI (MDA-N): > 10 µM
NNC(=S)N/N=C(\CCCC(=O)NCCc1ccccc1)CC(=O)c1ccccc1	–	> 100 µM	> 100	> 100	> 100	> 100	–
CC1CC2C3CC(F)C4=CC(=O)C=CC4(C)C3(F)C(O)CC2(C)C1(O)C(=O)COC(=O)C(C)(C)C (configuration not stated)	> 100	> 100 µM	–	> 100	> 100	–	–
O=C(O)c1ccccc1Cc1ccco1	–	> 100 µM	> 100	> 100	> 100	> 100	–
Cc1c2cc[nH]c(=O)c2c(C)c2c1[nH]c1cc(OCCN3CCN(C)CC3)ccc12	–	–	–	–	–	–	GI50 (BT-549 breast): 2.71 µM; TGI (BT-549 breast): 11.4 µM
O=C1OC(=O)c2c1c(-c1ccccc1)cn2-c1ccc(Cl)cc1	> 100	> 100 µM	> 100	> 100	> 100	> 100	TGI (RXF-631 renal): > 100 µM
COc1ccc(/C(=N/NC(N)=O)C2(O)C(=O)Nc3ccc([N+](=O)[O-])cc32)cc1 (configuration not stated)	30.1	34.7 µM	35.9	47.8	57	–	–
Nc1nc(CCC(=O)Nc2cccc(C(F)(F)F)c2)cc(-c2cccc3ccccc23)n1	> 100	> 100 µM	> 100	> 100	> 100	> 100	TGI (RXF-631 renal): > 100 µM
N#C/C(=C\c1ccccc1O)C(N)=O	> 100	> 100 µM	> 100	> 100	> 100	–	TGI (RXF-631 renal): > 100 µM
CCOc1ccc(NC(=O)CC2SC(=Nc3ccc(Cl)cc3)NC2=O)cc1 (configuration not stated)	> 100	–	> 100	> 100	> 100	> 100	TGI (RXF-631 renal): > 100 µM
CC[P+](C)(Cc1ccccc1)c1ccccc1 (configuration not stated)	> 100	> 100 µM	> 100	> 100	> 100	> 100	–
COc1cccc2c1C(=O)c1c(O)c3c(c(O)c1C2=O)CC(O)(C(C)=O)CC3OC1CC(N)C(O)C(C)O1 (configuration not stated)	–	–	–	–	–	–	GI50 (MDA-N): 0.156 µg/mL; TGI (MDA-N): 0.391 µg/mL; GI50 (BT-549 breast): 0.0458 µg/mL; TGI (BT-549 breast): 0.459 µg/mL
Cc1ccc(NCCCN2CCN(CCCNc3ccc(C)c4sc5ccccc5c(=O)c34)CC2)c2c(=O)c3ccccc3sc12	–	–	–	–	–	–	TGI (MDA-N): > 100 µM
Cc1cc(C)nc(NC(N)=NCCc2ccccc2)n1	–	–	–	–	–	–	GI50 (BT-549 breast): 3.92 µM; TGI (BT-549 breast): > 100 µM
c1ccc(SC2(Sc3ccccc3)CCCC2)cc1	> 100	> 100 µM	–	> 100	> 100	–	TGI (RXF-631 renal): > 100 µM
